Assays:
[1] = Half life in mice plasma; assay type: ADME, organism-based; conditions: mouse
[2] = target: RAC-alpha serine/threonine-protein kinase (Homo sapiens, UniProt P31749); assay: Inhibition of Protein kinase B alpha
[3] = target: cAMP-dependent protein kinase A (Bos taurus, UniProt P00515+P00517+P05131+P31322); assay: Inhibition of bovine protein kinase A (PKA); assay type: protein-complex assay

RAC-alpha serine/threonine-protein kinase, sequence (P31749 whole entry): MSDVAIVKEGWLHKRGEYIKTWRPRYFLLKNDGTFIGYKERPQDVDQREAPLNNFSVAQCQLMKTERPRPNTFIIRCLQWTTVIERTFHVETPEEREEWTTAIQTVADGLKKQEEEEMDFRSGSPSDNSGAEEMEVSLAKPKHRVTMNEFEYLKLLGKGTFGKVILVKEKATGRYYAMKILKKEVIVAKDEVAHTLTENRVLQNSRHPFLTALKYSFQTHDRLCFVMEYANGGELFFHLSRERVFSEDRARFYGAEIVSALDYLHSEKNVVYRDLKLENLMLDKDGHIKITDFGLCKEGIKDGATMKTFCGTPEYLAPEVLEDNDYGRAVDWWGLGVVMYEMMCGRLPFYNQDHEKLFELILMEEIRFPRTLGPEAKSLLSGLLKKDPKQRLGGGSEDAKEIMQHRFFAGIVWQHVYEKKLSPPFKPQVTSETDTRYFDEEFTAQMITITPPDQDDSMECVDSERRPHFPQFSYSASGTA

`COc1ccc(O)c(C(=O)c2ccc(CO[C@@H]3CCCNCC3NC(=O)c3ccncc3)cc2)c1F.Cl.Cl` (stereo not given in full) showed a half-life [1] of 29 h and an IC50 [2] of 355 nM.

`COc1ccc(O)c(C(=O)c2ccc(NC[C@@H]3CCCNCC3NC(=O)c3ccncc3)cc2)c1F` (stereo not given in full) showed an IC50 [3] of 45000 nM and an IC50 [2] of 25000 nM.

Work on `COc1ccc(O)c(C(=O)c2ccc(/C=C/[C@@H]3CCCNC[C@H]3NC(=O)c3ccncc3)cc2)c1F` yielded an IC50 [2] of 160 nM.

With `COc1ccc(O)c(C(=O)c2ccc(C(=O)O[C@@H]3CCCNCC3NC(=O)c3ccncc3)cc2)c1F.Cl.Cl` (stereo not given in full) the half-life [1] was under 0.0167 h.

In the case of `COc1ccc(O)c(C(=O)c2ccc(CN[C@@H]3CCCNC[C@H]3NC(=O)c3ccncc3)cc2)c1F.Cl`, the half-life [1] is reported as 161 h, the IC50 [3] is reported as 800 nM and the IC50 [2] is reported as 3000 nM.

In the case of `COc1ccc(O)c(C(=O)c2ccc(C(=O)N[C@@H]3CCCNCC3NC(=O)c3ccncc3)cc2)c1F.Cl.Cl` (stereo not given in full), the half-life [1] is reported as 69 h.

From ChEMBL document CHEMBL1149095, “Structure-based optimization of novel azepane derivatives as PKB inhibitors” (J Med Chem, 2004)
